Experimental data: patent US20070298105A1, “METHODS OF TREATING CONDITIONS BY SUSTAINED RELEASE ADMINISTRATION OF BENZIMIDAZOLE DERIVATIVES” (priority 2006, published 2007)
Like-named read-outs stand apart in the source and are kept apart here.

Columns and labels:
[1] = Colonic intubation study: plasma pharmacokinetics of rabeprazole and esomeprazole; assay type: in vivo, human; details: male, human, plasma, po, 40 mg; for AUC(0-inf): read-out: AUCinf (mean)
Experimental: A single-dose, open-label, partially randomized, five-treatment, five-period, crossover pilot study was performed in healthy males to determine relative pharmacokinetics of rabeprazole, and comparators when dosed either orally or colonically. The study was a single dose study with blood sampling up to 24 hours following initiation. […] Colonic dosing occurred using a nasoenteral tube. Treatment C was a single 20 mg dose of rabeprazole sodium oral enteric coated tablets dosed orally. Treatment D was placebo (200 mL of water) dosed orally. […] For subjects whose apparent elimination rate constant [k] could not be properly determined, the AUC to infinity [AUCinf]) was calculated based on the median apparent elimination constant [k] of the subjects with available t1/2 values in the same treatment period. […] The intragastric pH profile were determined.

[2] = system: intragastric pH; test: Colonic intubation study: intragastric pH profile (percent of time with pH >4); assay type: in vivo, human; details: for Mean percent of time with pH >4: TRT E: esomeprazole 40 mg oral tablet
Experimental: A single-dose, open-label, partially randomized, five-treatment, five-period, crossover pilot study was performed in healthy males to determine relative pharmacokinetics of rabeprazole, and comparators when dosed either orally or colonically. The study was a single dose study with blood sampling up to 24 hours following initiation.
Treatments A and B were rabeprazole sodium solution dosed to provide 30 and 60 mg, respectively, over 20 hours in the transverse colon of the subjects. Colonic dosing occurred using a nasoenteral tube. Treatment C was a single 20 mg dose of rabeprazole sodium oral enteric coated tablets dosed orally. Treatment D was placebo (200 mL of water) dosed orally.
The intragastric pH profile was analyzed based on the percentage of time that the intragastric pH was above 4, which was calculated for the full 24 hours. In addition, the mean pH value over 5 time intervals of 6 hours each during the 30-hr sampling time was also estimated.

[3] = TRT E: esomeprazole 40 mg oral tablet, N = 19
[4] = TRT E: esomeprazole 40 mg oral tablet, subset N = 14

- AUC(0-t) [1, 3]: 1870 ng·h/mL
- AUC(0-inf) [1, 3]: 1910 ng·h/mL
- half-life ([1]; TRT E: esomeprazole 40 mg oral tablet, N = 19, read-out: t1/2 (median) (converted)): 48 min
- Cmax ([1]; TRT E: esomeprazole 40 mg oral tablet, single dose, healthy males, N = 19): 727 ng/mL
- AUC(0-t) [1, 4]: 2270 ng·h/mL
- Cmax [1, 4]: 800 ng/mL
- AUC(0-inf) [1, 4]: 2310 ng·h/mL
- half-life ([1]; oral administration of 40 mg esomeprazole, read-out: median half-life (converted)): ~60 min
Compound: COc1ccc2nc([S@@+]([O-])Cc3ncc(C)c(OC)c3C)[nH]c2c1 [Esomeprazole]
- Mean percent of time with pH >4 ([2]; 0-6 hr (10 am-4 pm), N = 19): 57.0%
- Mean percent of time with pH >4 ([2]; 0-6 hr (10 am-4 pm), subset N = 14): 64.3%
- Mean percent of time with pH >4 ([2]; 6-12 hr (4 pm-10 pm), N = 19): 76.3%
- Mean percent of time with pH >4 ([2]; 6-12 hr (4 pm-10 pm), subset N = 14): 87.0%
- Mean percent of time with pH >4 ([2]; 12-18 hr (10 pm-4 am), N = 19): 36.6%
- Mean percent of time with pH >4 ([2]; 12-18 hr (10 pm-4 am), subset N = 14): 42.8%
- Mean percent of time with pH >4 ([2]; 18-24 hr (4 am-10 am), N = 19): 56.0%
- Mean percent of time with pH >4 ([2]; 18-24 hr (4 am-10 am), subset N = 14): 60.1%
- Mean percent of time with pH >4 ([2]; 24-30 hr (10 am-4 pm), N = 19): 49.5%
- Mean percent of time with pH >4 ([2]; 24-30 hr (10 am-4 pm), subset N = 14): 57.1%
- Mean percent of time with pH >4 ([2]; 24-hr average, N = 19): 56.5%
- Mean percent of time with pH >4 ([2]; 24-hr average, N = 19, listed as esomeprazole): 57%
- Mean percent of time with pH >4 ([2]; 24-hr average, subset N = 14): 63.5%
- effect on percentage of time with pH >4 compared to placebo ([2]; first 6 hours of treatment, esomeprazole treatment): significant increase
